# In patent US10179928B2, “Methods and tests for screening bacterial biofilms” (Helmholtz-Zentrum fuer Infektionsforschung GmbH, priority 2009, dated 2019):
# Legend:
# [1] = system: P. aeruginosa biofilms (PA14 and five clinical CF isolates); test: Biofilm susceptibility test: 96-well biofilm, BacLight (Syto9/PI) staining, automated CLSM, PHLIP biovolume analysis; format: cell-based, Pseudomonas aeruginosa
# Protocol: The evening before the inoculation of the 96-well microtitre plates, inoculate bacteria from a single colony into 2 ml of LB medium in a tube and incubate the preculture in an orbital shaker (180 r.p.m.) at 37° C. overnight (˜16 h). The next morning, prepare a subculture from the overnight culture by diluting it with fresh LB medium to an OD600 of 0.02. The total volume of the inoculated medium depends on the number of replicates and the number of antibiotics or antibiotic dilutions to be tested for this isolate. II. Biofilm Growth Take off the lid of the designated number of sterile half-area μClear microtitre plates and use 100 μl per well of the diluted overnight culture(s) (Step 2) to inoculate the wells (testing different antibiotics, antibiotic dilutions and a minimum of two replicates for each combination). Thereafter, seal the plate(s) with an air-permeable cover foil (no lid) and incubate for 24 h at 37° C. in an incubator with humid atmosphere. III. Antibiotic-Treatment of the Biofilms After 24 h of growth, the biofilms within the wells of the microtitre plate were exposed to antibiotics. Stock solutions of the chosen antibiotics in LB medium were prepared and two-fold serial dilutions in fresh LB-medium were performed. […] To add the antibiotic dilutions to the microtitre plates, the plates were taken out of the incubator into a safety cabinet. The cover foil was removed and 40 μl antibiotic solution to the appropriate well (different antibiotics/concentrations) were added except to the control well(s) where only LB is added. IV. Staining of the Biofilms Prepare staining solution as described above (see REAGENT SETUP). […] Cover the microtitre plate with a fresh air-permeable foil and return the plate to the incubator. Continue incubation for 24 h at 37° C. before imaging. Immediately before microscopy (after ˜48 h total incubation time), remove the microtitre plate with treated biofilms from the incubator. V. Microscopy Automated Run or Manual Run When using the automated confocal Opera system, two positions at the center of each well are chosen automatically to acquire z-stacks of the biofilms. […] Focal planes are acquired starting from the bottom of the plate (position 0) with an interplane distance (z-step size) of 3 μm (using a 40×/0.85 numerical-aperture (NA) air objective). Syto9 is excited with a 488-nm laser and detected with a 540/75 nm band-pass emission filter, whereas PI is excited at 561 nm and detected with a 600/40 nm band-pass emission filter. If a non-automated confocal microscope is used, choose adequate filter settings for Syto9 and PI. To enhance comparability, biofilm images should be recorded at the center of a well. In a manual process, due to time reasons image acquisition might be reduced to one stack per well if 2-3 replicates of the same sample are present within the plate. VI. Data Analysis Computer Calculation Save the image stacks as single .bmp image files (image files may require conversion, for example, with MATLAB software). Batch-process all images using a background subtraction tool (for example, the ‘Subtract Background’ command in ImageJ). Following background subtraction, use an Otsu-thresholding algorithm to obtain thresholded binary images (8-bit format). Reduce the appearance of planktonic bacteria and outlying pixels with a noise filter (such as the ‘Remove Outliers’ command in ImageJ). Steps 11-13 are exemplified in Supplementary FIG. 1. Reassemble the image stacks from the individual processed binary images for each position and channel with Auto PHLIP-ML software. Use the MATLAB-based tool PHLIP (without connected volume filtration) to calculate descriptive parameters of biofilms (including biovolume, substratum coverage, area-to-volume ratio, spatial spreading and 3D colocalization) from the integrated total of each individual slice of a thresholded z-stack.
# [2] = system: P. aeruginosa PA14 and five clinical strains; test: CFU determinations of whole well content (planktonic and biofilm bacteria); format: cell-based, Pseudomonas aeruginosa
# [3] = system: P. aeruginosa PA14 and five clinical CF isolates (planktonic); test: Planktonic MIC determination with the semi-automated Vitek2 system; conditions: for MIC: Pseudomonas aeruginosa, Vitek2
# Protocol: Clinical isolates were recovered from the respiratory tracts of chronically infected people with CF at the Hannover Medical School and differed according to morphology and resistance profile. The MICs were determined by the use of the semi-automated Vitek2 system (Biomerieux).
# [4] = system: mixed bacterial communities from sputum specimens of two cystic fibrosis patients; test: Multi species biofilm susceptibility test of sputum specimens; format: cell-based; conditions: one sputum sample; 1 mg ml−1
Compound,"MIC ([3]; isolate 5497, planktonic) [µg/mL]","MIC ([3]; isolate 5520, planktonic) [µg/mL]","MIC ([3]; isolate 5522, planktonic) [µg/mL]","MIC ([3]; isolate 5524, planktonic) [µg/mL]","MIC ([3]; isolate 5529, planktonic) [µg/mL]","MIC ([3]; isolate PA14, planktonic) [µg/mL]","MIC interpretation category ([3]; isolate 5497, Vitek2)","MIC interpretation category ([3]; isolate 5520, Vitek2)","MIC interpretation category ([3]; isolate 5522, Vitek2)","MIC interpretation category ([3]; isolate 5524, Vitek2)","MIC interpretation category ([3]; isolate 5529, Vitek2)","MIC interpretation category ([3]; isolate PA14, Vitek2)",biofilm response ([1]; isolate 5497),other results
CC(C)O [isopropanol],–,–,–,–,–,–,–,–,–,–,–,–,–,"fraction of green fluorescence in killed biofilm ([1]; biofilms of three clinical isolates, killing control): 10-20%; killing verified by CFU counts ([2]; biofilms of three clinical isolates): efficiently killed"
colistin,–,–,–,–,–,–,–,–,–,–,–,–,–,biofilm responsiveness [4]: responsive
CC(C)(O/N=C(\C(=O)N[C@@H]1C(=O)N2C(C(=O)[O-])=C(C[n+]3ccccc3)CS[C@H]12)c1csc(N)n1)C(=O)O [ceftazidime],1,4,4,2,≤ 1,≤ 1,S,S,S,S,S,S,✓ (Biofilms were categorized as responsive (✓) if a consistent increase in the fraction of red and yellow (colocalized) fluorescenct biovolume (reaching ~ 80% of the total biovolume) within a given antibiotic concentration range was detected.),"RY biovolume of the total biovolume ([1]; strain 5497): ~80%; CFU count ([2]; strain 5497): 10^6 cells per ml; CFU count ([2]; strain PA14, without correlated imaging data): 10^6 cells per ml"

# Further lines, with some results ahead:
"MIC ([3]; isolate 5497, planktonic) [µg/mL]","MIC ([3]; isolate 5520, planktonic) [µg/mL]","MIC ([3]; isolate 5522, planktonic) [µg/mL]","MIC ([3]; isolate 5524, planktonic) [µg/mL]","MIC ([3]; isolate 5529, planktonic) [µg/mL]","MIC ([3]; isolate PA14, planktonic) [µg/mL]","MIC interpretation category ([3]; isolate 5497, Vitek2)","MIC interpretation category ([3]; isolate 5520, Vitek2)","MIC interpretation category ([3]; isolate 5522, Vitek2)","MIC interpretation category ([3]; isolate 5524, Vitek2)","MIC interpretation category ([3]; isolate 5529, Vitek2)","MIC interpretation category ([3]; isolate PA14, Vitek2)",Compound,biofilm response ([1]; isolate 5497),other results
≤ 0.25,1,> 32,1,> 32,1,S,S,R,S,R,S,NC[C@H]1O[C@H](O[C@H]2[C@H](O)[C@@H](O[C@H]3O[C@H](CO)[C@@H](O)[C@H](N)[C@H]3O)[C@H](N)C[C@@H]2N)[C@H](N)C[C@@H]1O [tobramycin],✓ (Biofilms were categorized as responsive (✓) if a consistent increase in the fraction of red and yellow (colocalized) fluorescenct biovolume (reaching ~ 80% of the total biovolume) within a given antibiotic concentration range was detected.),"biofilm response ([1]; isolate 5520): ✓ (Biofilms were categorized as responsive (✓) if a consistent increase in the fraction of red and yellow (colocalized) fluorescenct biovolume (reaching ~ 80% of the total biovolume) within a given antibiotic concentration range was detected.); biofilm response ([1]; isolate PA14): ✓ (Biofilms were categorized as responsive (✓) if a consistent increase in the fraction of red and yellow (colocalized) fluorescenct biovolume (reaching ~ 80% of the total biovolume) within a given antibiotic concentration range was detected.); fraction of the RY biovolume of the total biovolume ([1]; strain 5529 at 512 μg ml−1): ~80%; fraction of the RY (red+yellow) biovolume of the total biovolume ([1]; strains PA14, 5497 and 5520, increasing concentrations, 2-512 μg ml−1): ~80%; change in CFUs ([2]; strains 5522, 5524 and 5529, low antibiotic concentrations): minor decrease; CFU counts ([2]; strains PA14, 5497 and 5520, increasing concentrations): ≤ 10^5 cells per ml"
≤ 0.25,0.5,2,≤ 0.25,1,≤ 0.25,S,S,S,S,S,S,C[C@@H](O)[C@H]1C(=O)N2C(C(=O)O)=C(S[C@@H]3CN[C@H](C(=O)N(C)C)C3)[C@H](C)[C@H]12 [meropenem],–,susceptibility under biofilm growth conditions ([1]; all strains): resistance; CFU counts ([2]; strain 5529 at 128 μg ml−1): ~10^6 cells per ml
